Assays:
T cells (Th1 skewing) = test: Th1 skewing culture; format: cell-based; settings: BTR with IL-2, IL-12, anti-IL-4 cocktail
Method: To investigate the molecular mechanism of action of PDAC-mediated suppression of Th1 skewing, IDO siRNA was transiently transfected into PDACs by standard techniques. Th1 skewing was carried out as for the BTR reactions (see above) but supplemented with an additional Th1 skewing cytokine cocktail containing IL-2 (200 IU/mL), IL-12 (2 ng/mL) and anti-IL-4 (0.4 μg/ml).

[1] = biological target: T1, indoleamine 2,3-dioxygenase (IDO) (Homo sapiens, UniProt P14902); test: BTR T cell proliferation assay with IDO blockade; format: cell-based; settings: 256 μM
T1 construct: endogenous in cells; host or cells: PDACs (placental stem cells) co-cultured with T cells in the BTR assay
Text: To investigate the mechanism of action of PDAC-mediated suppression of T cell proliferation, pharmacological inhibitors or neutralizing antibodies were used to block the activity of prostaglandin E2 (PGE2), inducible nitric oxide synthase (iNOS), transforming growth factor beta (TGF-β), interleukin-10 (IL-10) and IDO in an in vitro T cell proliferation assay (BTR).

[2] = system: chick chorioallantoic membrane (CAM); test: CAM angiogenesis assay using PDACs; format: in vivo; settings: P<0.001, Student's t test
Method: Two separate CAM assays were conducted. In the first CAM assay, intact cell pellets from different preparations of PDAC were evaluated. In the second CAM assay, supernatants of different PDAC preparations were evaluated. Fibroblast growth factor (bFGF) was used as a positive control, and MDA-MB-231 human breast cancer cells as a reference, vehicle and medium controls were used as negative controls. The endpoint of the study was to determine the blood vessel densities of all treatment and control groups.
PDACs, prepared as described above and cryopreserved, were used. PDACs were thawed for dosing and the number of cells dosed on the CAM was determined. […]
CAM Assay Procedure: Fresh fertile eggs were incubated for 3 days in a standard egg incubator at 37° C. for 3 days. […] On Day 8, embryos were removed from the incubator and kept at room temperature while blood vessel density was determined under each “O” ring using an image capturing system at a magnification of 100×.
Blood vessel density was measured by an angiogenesis scoring system that used arithmetic numbers 0 to 5, or exponential numbers 1 to 32, to indicate the number of blood vessels present at the treatment sites on the CAM. […] The percent of inhibition at each dosing site was calculated using the score recorded for that site divided by the mean score obtained from control samples for each individual experiment. […]

[3] = system: chick chorioallantoic membrane (CAM); test: CAM angiogenesis assay using PDAC supernatants; format: in vivo; settings: supernatant mixed with MATRIGEL 1:1; PDAC supernatants P<0.01, P<0.001, P<0.02; bFGF P<0.001
Text: Supernatant samples from MDA-MB-231 cells and PDACs were used in a second CAM assay as described above. bFGF and MDA-MB-231 supernatants were used as positive controls, medium and vehicle were used as negative controls.
Study Design: The study included 5 groups with 10 embryos in each group. The design of the study is described in Table 4.
CAM Assay Procedure: The assay procedure was the same as described in section 6.3.1, above. The only difference was that supernatant from each stem cell preparation or from MDA-MB-231 cells was used as test material. For dosing, each supernatant was mixed with MATRIGEL™ (1:1 by volume) and […] of the mixture was dosed to each embryo.

T1 sequence (P14902 whole entry): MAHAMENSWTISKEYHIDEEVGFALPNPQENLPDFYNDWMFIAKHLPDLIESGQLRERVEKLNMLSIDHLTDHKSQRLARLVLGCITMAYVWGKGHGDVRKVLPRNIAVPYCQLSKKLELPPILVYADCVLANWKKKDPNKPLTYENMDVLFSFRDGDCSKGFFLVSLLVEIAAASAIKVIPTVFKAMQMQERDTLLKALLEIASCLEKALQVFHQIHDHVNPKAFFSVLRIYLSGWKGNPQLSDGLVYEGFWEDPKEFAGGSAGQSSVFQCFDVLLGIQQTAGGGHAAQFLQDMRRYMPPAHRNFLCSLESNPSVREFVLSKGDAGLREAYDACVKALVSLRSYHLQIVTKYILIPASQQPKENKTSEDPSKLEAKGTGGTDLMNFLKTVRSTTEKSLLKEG

| Compound | rescue of PDAC-mediated suppression of Th1 skewing (T cells (Th1 skewing)) | rescue of T cell proliferation from PDAC-mediated suppression [1] | blood vessel density score versus vehicle control CAMs [2] | blood vessel induction versus vehicle controls [3] |
| --- | --- | --- | --- | --- |
| Cn1cc(C[C@H](N)C(=O)O)c2ccccc21 [1 MT, 1-methyl tryptophan] | completely rescued | – | – | – |
| N[C@@H](Cc1c[nH]c2ccccc12)C(=O)O [L-Trp, L-trptophan] | completely rescued | substantially rescued | – | – |
| bFGF: basic fibroblast growth factor (positive control) | – | – | statistically significantly higher | potent induction of blood vessel formation |

From patent publication US20120156230A1, “TREATMENT OF SPINAL CORD INJURY AND TRAUMATIC BRAIN INJURY USING PLACENTAL STEM CELLS” (priority 2010, published 2012)
